These results are taken from patent US8197863B2, “Hop acids as a replacement for antibiotics in animal feed” (John I. Haas, Inc., priority 2002, dated 2012).

This assay has as its system total bacteria (bacterial purine). In words: In vitro microbe measurements: bacterial purine (total bacteria). Type of assay: cell-based, cattle. The following applies: alfalfa; monensin 6 ppm. An excerpt: Proprionate is largely responsible for animal growth. […] There appears to be no effect on alfalfa protozoa and alfalfa bacterial purine by the beta acids. Again, reduction in protozoa and bacteria levels means more food and energy for animal growth.

For the molecule `CC[C@@]1([C@@H]2O[C@@H]([C@H]3O[C@@](O)(CO)[C@H](C)C[C@@H]3C)C[C@@H]2C)CC[C@H]([C@]2(C)CC[C@]3(C[C@H](O)[C@@H](C)[C@@H]([C@@H](C)[C@@H](OC)[C@H](C)C(=O)O)O3)O2)O1` [monensin], the “elimination of protozoa and bacterial purines” value is “most effectively eliminate”.
